Source: patent US6849653B2, “Substituted pyrazolyl benzenesulfamide compounds for the treatment of inflammation” (Pharmacia Corporation, priority 2001, dated 2005)
Where a name gives a salt, the structure may show the parent alone.

What follows are compounds tested against T1, IKK2 (IKKβ), rhIKK2 homodimer (Homo sapiens, UniProt O14920) (assay: IKKβ (IKK2) Resin Enzyme Assay). Conditions: Table 2; values given as bins; read-out: IKK2 Resin IC 50.
T1 construct: made in house; host or cells: insect cells (baculovirus; SF9)
T1 sequence (O14920 1-756): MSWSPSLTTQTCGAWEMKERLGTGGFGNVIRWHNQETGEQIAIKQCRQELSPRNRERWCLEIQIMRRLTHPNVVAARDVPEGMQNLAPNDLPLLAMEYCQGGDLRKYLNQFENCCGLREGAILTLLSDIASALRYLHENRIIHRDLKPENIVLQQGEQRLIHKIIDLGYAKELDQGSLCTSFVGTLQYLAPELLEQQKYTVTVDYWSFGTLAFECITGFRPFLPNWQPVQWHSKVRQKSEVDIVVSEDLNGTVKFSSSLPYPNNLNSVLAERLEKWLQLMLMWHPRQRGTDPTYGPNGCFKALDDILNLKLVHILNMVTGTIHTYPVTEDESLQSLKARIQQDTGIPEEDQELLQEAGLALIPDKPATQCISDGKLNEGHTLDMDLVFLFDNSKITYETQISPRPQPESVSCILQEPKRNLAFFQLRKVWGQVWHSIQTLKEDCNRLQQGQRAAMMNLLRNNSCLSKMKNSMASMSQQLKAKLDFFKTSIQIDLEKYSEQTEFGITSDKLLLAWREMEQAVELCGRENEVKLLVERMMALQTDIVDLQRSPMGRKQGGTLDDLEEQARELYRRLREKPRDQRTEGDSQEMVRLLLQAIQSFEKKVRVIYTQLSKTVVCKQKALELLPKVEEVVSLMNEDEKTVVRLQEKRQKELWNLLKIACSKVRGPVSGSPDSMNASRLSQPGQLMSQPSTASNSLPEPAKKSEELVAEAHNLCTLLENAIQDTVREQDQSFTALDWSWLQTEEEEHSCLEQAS
Format: biochemical
Source text: (§1) cDNAs of human IKK1 and IKK2 were amplified by reverse transcriptase-polymerase chain reaction from human placental RNA (Clonetech). hIKK1 was subcloned into pFastBac HTa (Life Technologies) and expressed as N-terminal His6-tagged fusion protein. The hIKK2 cDNA was amplified using a reverse oligonucleotide primer which incorporated the peptide sequence for a FLAG-epitope tag at the C-terminus of the IKK2 coding region (DYKDDDDKD). The hIKK2:FLAG cDNA was subcloned into the baculovirus vector pFastBac. The rhIKK2 ([…]) mutant was constructed in the same vector used for wild type rhIKK2 using a QuikChange™ mutagenesis kit (Stratagene). Viral stocks of each construct were used to infect insect cells grown in 40L suspension culture. […] Cell lysates were stored at −80° C. until purification of the recombinant proteins was undertaken as described below.
Isolation of rhIKK2 Homodimer
A 10 liter culture of baculovirus-expressing IKK2 tagged with FLAG peptide was centrifuged and the cell pellet (MOI=0.1 and I=72 hrs) was re-suspended in buffer A. These cells were microfluidized, and centrifuged at 100,000×g for 45 min. Supernatant was passed over a G-25 column equilibrated with Buffer A. Protein peak was collected and incubated with anti-FLAG affinity resin on a rotator overnight in buffer B. The resin was washed in batch with 10-15 bed volumes of buffer C. Washed resin was poured into a column and rhIKK2 homodimer was eluted using 5 bed volumes of buffer B containing FLAG peptide. 5 mM DTT, 0.1% NP-40 and BSA (concentrated to 0.1% in final amount) was added to the eluted enzyme before concentrating in using an Amicon membrane with a molecular weight cut-off of 30 kDa. Enzyme was aliquoted and stored at −80° C.
IKKβ kinase activity was measured using a biotinylated IκBα peptide (Gly-Leu-Lys-Lys-Glu-Arg-Leu-Leu-Asp-Asp-Arg-His-Asp-Ser32-Gly-Leu-Asp-Ser36-Met-Lys-Asp-Glu-Glu) (American Peptide Co.). […] contained 5 μM biotinylated IκBα peptide, 0.1 μCi/reaction [γ-^33P] ATP (Amersham) (about 1×10^5 cpm), 1 μM ATP (Sigma), 1 mM DTT (Sigma), 2 mM MgCl2 (Sigma), 2 mM MnCl2 (Sigma), 10 mM NaF (Sigma), 25 mM Hepes (Sigma) buffer, pH 7.6 and 20 μl enzyme solution and […] inhibitor in a final volume of 50 μl. After incubation at 25° C. for 30 min, 150 μl resin (Dowex anion-exchange resin AG1X8 200-400 mesh) in 900 mM formate, pH 3.0 was added to each well to stop the reaction. Resin was allowed to settle for one hour and 50 ul of supernatant was removed to a Micolite-2 flat bottom plate (Dynex). 150 μl of scintillation fluid (Microscint 40) (Packard) was added to each well. Incorporation of [γ-^33P] ATP was measured using a Top-Count NXT (Packard).

IC50 [µM]	Compound
1 to 10	CS(=O)(=O)c1ccc(-n2nc(C(N)=O)c3ccc4ccc(NC(=O)c5ccccc5F)cc4c32)cc1 [Example 42, 8-[(2-fluorobenzoyl)amino]-1-[4-(methylsulfonyl)phenyl]-1H-benzo[g]indazole-3-carboxamide]
≤ 1	CS(=O)(=O)c1ccc(-n2nc(C(N)=O)c3ccc4ccc(NC(=O)c5cccnc5Cl)cc4c32)cc1 [Example 41, 8-{[(2-chloropyridin-3-yl)carbonyl]amino}-1-[4-(methylsulfonyl)phenyl]-1H-benzo[g]indazole-3-carboxamide]

Same assay, conditions: Table 3; read-out: IKK2 Resin IC 50

IC50 [µM]	Compound
1 to 10	NC(=O)c1nn(-c2ccc(F)cc2)c2c1cc(-c1cccnc1)c1ccc(NC(=O)c3ccncc3Cl)cc12 [Example 45, 8-[(3-chloroisonicotinoyl(amino]-1-(4-fluorophenyl)-5-pyridin-3-yl-1H-benzo[g]indazole-3-carboxamidedihydrochloride]

Same assay, conditions: Table 4; values given as bins; read-out: IKK2 Resin IC 50

IC50 [µM]	Compound
≤ 1	NC(=O)c1nn(-c2ccc3c(c2)OCO3)c2c1ccc1ccc(NC(=O)c3cccnc3Cl)cc12 [Example 55, 1-(1,3-benzodioxol-5-yl)-8-{[(2-chloropyridin-3-yl)carbonyl]amino}-1H-benzo[g]indazole-3-carboxamide]
≤ 1	NC(=O)c1nn(-c2ccc3c(c2)OCO3)c2c1ccc1ccc(NC(=O)c3ccncc3Cl)cc12 [Example 58, 1-(1,3-benzodioxol-5-yl)-8-[(3-chloroisonicotinoyl)amino]-1H-benzo[g]indazole-3-carboxamide]

What follows are compounds tested against T2, rhIKK1/IKK2 heterodimer (Homo sapiens, UniProt O14920+O15111) (assay: IKK Heterodimer Resin Enzyme Assay). Conditions: Table 1; values given as bins; read-out: HetD (IKK heterodimer assay values expressed as IC50).
T2 construct: made in house; host or cells: insect cells (baculovirus coinfection; SF9)
T2 sequence (O14920 1-756): T1 sequence (O14920 1-756)
T2 sequence (O15111 1-745): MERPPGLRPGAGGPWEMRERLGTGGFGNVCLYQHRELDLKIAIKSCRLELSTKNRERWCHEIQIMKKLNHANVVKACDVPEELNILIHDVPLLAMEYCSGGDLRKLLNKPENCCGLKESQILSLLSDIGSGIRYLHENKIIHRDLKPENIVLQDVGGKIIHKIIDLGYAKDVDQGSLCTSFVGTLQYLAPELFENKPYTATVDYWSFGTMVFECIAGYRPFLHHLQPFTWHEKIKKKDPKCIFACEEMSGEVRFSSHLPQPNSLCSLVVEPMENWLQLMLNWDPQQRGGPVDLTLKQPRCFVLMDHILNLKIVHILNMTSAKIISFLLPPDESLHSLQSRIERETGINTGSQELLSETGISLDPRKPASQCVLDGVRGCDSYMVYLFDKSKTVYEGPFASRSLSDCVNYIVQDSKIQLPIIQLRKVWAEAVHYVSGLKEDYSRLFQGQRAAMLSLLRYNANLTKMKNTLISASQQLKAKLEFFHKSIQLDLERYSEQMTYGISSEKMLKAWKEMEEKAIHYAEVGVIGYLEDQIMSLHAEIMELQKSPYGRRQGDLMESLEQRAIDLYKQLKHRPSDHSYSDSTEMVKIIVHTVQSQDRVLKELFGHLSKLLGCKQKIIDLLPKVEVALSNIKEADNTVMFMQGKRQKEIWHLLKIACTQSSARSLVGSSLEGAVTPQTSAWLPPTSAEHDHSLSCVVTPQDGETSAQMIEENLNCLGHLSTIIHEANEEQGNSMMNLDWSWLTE
Format: biochemical
Source text: as §1, with “([…]).” for “(DYKDDDDKD).”
Isolation of rhIKK1/IKK2 Heterodimer
The heterodimer enzyme was produced by coinfection in a baculovirus system (FLAG IKK2/IKK1 His; MOI=0.1 and I=72 hrs). Infected cells were centrifuged and the cell pellet (10.0 g) was suspended in 50 ml of buffer A. The protein suspension was microfluidized and centrifuged at 100,000×g for 45 min. Imidazole was added to the supernatant to a final concentration of 10 mM. The protein was allowed to bind 25 ml of Ni-NTA resin by mixing for 2 hrs. The protein-resin slurry was poured into a 25 ml column and washed with 250 ml of buffer A containing 10 mM imidazole followed by 125 ml of buffer A containing 50 mM imidazole. Buffer A, containing 300 mM imidazole, was then used to elute the protein. A 75 ml pool was collected and NP-40 was added to a final concentration of 0.1%. […] The protein-resin slurry was then centrifuged for 5 min at 2,000 rpm. The supernatant was collected and the resin re-suspended in 100 ml of buffer C containing 0.1% NP-40. The resin was washed with 375 ml of buffer C containing 0.1% NP-40. The protein-resin was poured into a 25 ml column and the enzyme eluted using buffer B containing FLAG peptide. Enzyme fractions (100 ml) were collected and concentrated to 20 ml using an Amicon membrane with molecular weight cut-off of 30 kDa. Bovine serum albumin was added to the concentrated enzyme to final concentration of 0.1%. The enzyme was then aliquoted and stored at −80° C.
IKK Heterodimer Resin Enzyme Assay
Resin was allowed to settle for one hour and 50 ul of supernatant was removed to a Micolite-2 flat bottom plate (Dynex). 150 μl of scintillation fluid (Microscint 40) (Packard) was added to each well. Incorporation of [γ-^33P] ATP was measured using a Top-Count NXT (Packard).

Compound	IC50 [µM]
COc1cccc(C(=O)Nc2ccc3ccc4c(C(N)=O)nn(-c5ccc(S(N)(=O)=O)cc5)c4c3c2)c1 [Example 8, 1-[4-(aminosulfonyl)phenyl]-8-[(3-methoxybenzoyl)amino]-1H-benzo[g]indazole-3-carboxamide]	≤ 1
NC(=O)c1nn(-c2ccc(S(N)(=O)=O)cc2)c2c1ccc1ccc(NC(=O)c3ccccc3Cl)cc12 [Example 14, 1-[4-(aminosulfonyl)phenyl]-8-[(2-chlorobenzoyl)amino]-1H-benzo[g]indazole-3-carboxamide]	≤ 1
NC(=O)c1nn(-c2ccc(S(N)(=O)=O)cc2)c2c1ccc1ccc(NC(=O)c3cccc(Br)c3)cc12 [Example 12, 1-[4-(aminosulfonyl)phenyl]-8-[(3-bromobenzoyl)amino]-1H-benzo[g]indazole-3-carboxamide]	≤ 1
NC(=O)c1nn(-c2ccc(S(N)(=O)=O)cc2)c2c1ccc1ccc(NS(=O)(=O)c3ccc(Cl)c(Cl)c3)cc12 [Example 22, 1-[4-(aminosulfonyl)phenyl]-8-{[(3,4-dichlorophenyl)sulfonyl]amino}-1H-benzo[g]indazole-3-carboxamide]	1 to 10
NC(=O)c1nn(-c2ccc(S(N)(=O)=O)cc2)c2c1ccc1ccc(NS(=O)(=O)c3cccc(Br)c3)cc12 [Example 15, 1-[4-(aminosulfonyl)phenyl]-8-{[(3-bromophenyl)sulfonyl]amino}-1H-benzo[g]indazole-3-carboxamide]	1 to 10
NC(=O)c1nn(-c2ccc(S(N)(=O)=O)cc2)c2c1ccc1ccc(NS(=O)(=O)c3cc(Cl)c(Cl)cc3Cl)cc12 [Example 23, 1-[4-(aminosulfonyl)phenyl]-8-{[(2,4,5-trichlorophenyl)sulfonyl]amino}-1H-benzo[g]indazole-3-carboxamide]	1 to 10

Next, values leading:

IC50 [µM]	Compound
1 to 10	NC(=O)c1nn(-c2ccc(S(N)(=O)=O)cc2)c2c1ccc1ccc(NS(=O)(=O)c3cc(C(F)(F)F)cc(C(F)(F)F)c3)cc12 [Example 24, 1-[4-(aminosulfonyl)phenyl]-8-({[3,5-bis(trifluoromethyl)phenyl]sulfonyl}amino)-1H-benzo[g]indazole-3-carboxamide]
≤ 1	NC(=O)c1nn(-c2ccc(S(N)(=O)=O)cc2)c2c1ccc1ccc(NC(=O)c3ccccc3OC(F)(F)F)cc12 [Example 29]
